Counter-ions that a name gives are not always drawn.

T1 sequence (Q9Y5N1 whole entry): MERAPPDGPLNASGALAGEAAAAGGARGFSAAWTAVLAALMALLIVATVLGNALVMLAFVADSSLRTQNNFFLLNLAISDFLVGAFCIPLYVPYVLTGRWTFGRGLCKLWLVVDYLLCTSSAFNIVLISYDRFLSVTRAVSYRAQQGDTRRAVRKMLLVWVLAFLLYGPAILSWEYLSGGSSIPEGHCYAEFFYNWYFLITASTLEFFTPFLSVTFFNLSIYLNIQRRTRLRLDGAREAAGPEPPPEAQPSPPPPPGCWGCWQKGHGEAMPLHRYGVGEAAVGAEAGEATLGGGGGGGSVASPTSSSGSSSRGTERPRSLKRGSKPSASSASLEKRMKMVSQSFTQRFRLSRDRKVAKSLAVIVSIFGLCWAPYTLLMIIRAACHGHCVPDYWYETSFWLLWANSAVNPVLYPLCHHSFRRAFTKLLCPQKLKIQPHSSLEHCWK

This assay addresses T1, Human Histamine H3 Receptor (Homo sapiens, UniProt Q9Y5N1).
T1 construct: expressed in transfected cells; host or cells: HEK293T (stably transfected; membranes prepared from the cells)
In words: Methyl histamine binding in human histamine H3 receptor cell line. The conditions noted are these: read-out: H3 Binding Ki. The method in brief:
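Radioligand binding on membranes (10 μg/well) from a human H3 receptor cell line, 1 nM radioligand, 1 h at 30° C. in 50 mM Tris pH 7.5. Nonspecific binding defined with 10 uM clobenpropit, followed by filtration and scintillation counting. IC50 from four-parameter fit, converted to Ki by Cheng-Prusoff.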
In the case of `COC[C@H](C)NC(=O)c1ccc(-c2ccc3c(c2)CCN(CCN2CCCC2)C3=O)cc1` [Example 126, N-[(1S)-2-methoxy-1-methylethyl]-4-[1-oxo-2-(2-pyrrolidin-1-ylethyl)-1,2,3,4-tetrahydroisoquinolin-6-yl]benzamide], the inhibition constant Ki is less than 10 nM.

In the case of `COC1CCN(C(=O)c2ccc(-c3ccc4c(c3)CCN(CCN3CCCC3)C4=O)cc2)C1` (stereo not drawn) [Example 127, 6-{4-[(3-methoxypyrrolidin-1-yl)carbonyl]phenyl}-2-(2-pyrrolidin-1-ylethyl)-3,4-dihydroisoquinolin-1(2H)-one], the Ki is less than 10 nM.

`COC[C@@H]1CCCN1C(=O)c1ccc(-c2ccc3c(c2)CCN(CCN2CCCC2)C3=O)cc1` [Example 128, 6-(4-{[(2S)-2-(methoxymethyl)pyrrolidin-1-yl]carbonyl}phenyl)-2-(2-pyrrolidin-1-ylethyl)-3,4-dihydroisoquinolin-1(2H)-one]: the Ki was less than 10 nM.

Turning to `O=C(Nc1nccs1)c1ccc(-c2ccc3c(c2)CCN(CCN2CCCC2)C3=O)cc1` [Example 130, 4-[1-oxo-2-(2-pyrrolidin-1-ylethyl)-1,2,3,4-tetrahydroisoquinolin-6-yl]-N-1,3-thiazol-2-ylbenzamide], the Ki was less than 10 nM.

With `O=C(c1cc(-c2ccc3c(c2)CCN(CCN2CCCC2)C3=O)ccc1F)N1CCCC1` [Example 131, 6-[4-fluoro-3-(pyrrolidin-1-ylcarbonyl)phenyl]-2-(2-pyrrolidin-1-ylethyl)-3,4-dihydroisoquinolin-1-(2H)-one], the Ki is less than 10 nM.

Take `CN(C)C(=O)c1cc(-c2ccc3c(c2)CCN(CCN2CCCC2)C3=O)ccc1F` [Example 132, 2-fluoro-N,N-dimethyl-5-[1-oxo-2-(2-pyrrolidin-1-ylethyl)-1,2,3,4-tetrahydroisoquinolin-6-yl]benzamide]: the Ki is less than 10 nM.

On to `O=C(c1ccc(-c2ccc3c(c2)CCN(CCN2CCCC2)C3=O)cc1Cl)N1CCCC1` [Example 134, 6-[3-chloro-4-(pyrrolidin-1-ylcarbonyl)phenyl]-2-(2-pyrrolidin-1-ylethyl)-3,4-dihydroisoquinolin-1(2H)-one], for which the Ki was less than 10 nM.

Take `CN(C)C(=O)c1ccc(-c2ccc3c(c2)CCN(CCN2CCCC2)C3=O)c(F)c1` [Example 137, 3-fluoro-N,N-dimethyl-4-[1-oxo-2-(2-pyrrolidin-1-ylethyl)-1,2,3,4-tetrahydroisoquinolin-6-yl]benzamide]: the Ki was less than 10 nM.

Regarding `O=C(c1ccc(-c2ccc3c(c2)CCN(CCN2CCCC2)C3=O)c(F)c1)N1CCCC1` [Example 138, 6-[2-fluoro-4-(pyrrolidin-1-ylcarbonyl)phenyl]-2-(2-pyrrolidin-1-ylethyl)-3,4-dihydroisoquinolin-1(2H)-one], the Ki is less than 10 nM.

Take `CNC(=O)c1ccc(-c2ccc3c(c2)CCN(CCN2CCCC2)C3=O)c(F)c1` [Example 139, 3-fluoro-N-methyl-4-[1-oxo-2-(2-pyrrolidin-1-ylethyl)-1,2,3,4-tetrahydroisoquinolin-6-yl]benzaimde]: the Ki was less than 10 nM.

`CCNC(=O)c1ccc(-c2ccc3c(c2)CCN(CCN2CCCC2)C3=O)c(F)c1` [Example 140, N-ethyl-3-fluoro-4-[1-oxo-2-(2-pyrrolidin-1-ylethyl)-1,2,3,4-tetrahydroisoquinolin-6-yl]benzamide]: the Ki was less than 10 nM.

`CNC(=O)c1ccc(-c2ccc3c(c2)CCN(CCCN2CCCC2)C3=O)cc1` [Example 141, N-methyl-4-[1-oxo-2-(3-pyrrolidin-1-ylpropyl)-1,2,3,4-tetrahydroisoquinolin-6-yl]benzamide]: the Ki was less than 10 nM.

As to `C[C@@H]1CCCN1CCN1CCc2cc(C(=O)N3CCCCCC3)ccc2C1=O` [Example 144, 6-(azepan-1-ylcarbonyl)-2-{2-[(2R)-2-methylpyrrolidin-1-yl]ethyl}-3,4-dihydroisoquinolin-1(2H)-one], the Ki was less than 10 nM.

`C[C@@H]1CCCN1CCN1CCc2cc(C(=O)NC3CCC3)ccc2C1=O` [Example 145, N-cyclobutyl-2-{2-[(2R)-2-methylpyrrolidin-1-yl]ethyl}-1-oxo-1,2,3,4-tetrahydroisoquinoline-6-carboxamide]: the Ki was less than 10 nM.

As to `C[C@@H]1CCCN1CCN1CCc2cc(C(=O)N3CCCCC3)ccc2C1=O` [Example 146, 2-{2-[(2R)-2-methylpyrrolidin-1-yl]ethyl}-6-(piperidin-1-ylcarbonyl)-3,4-dihydroisoquinolin-1(2H)-one], the Ki was less than 10 nM.

For `C[C@@H]1CCCN1CCN1CCc2cc(C(=O)NC3CCCCC3)ccc2C1=O` [Example 147, N-cyclohexyl-2-{2-[(2R)-2-methylpyrrolidin-1-yl]ethyl}-1-oxo-1,2,3,4-tetrahydroisoquinoline-6-carboxamide], the inhibition constant (Ki) is less than 10 nM.

For the compound `C[C@@H]1CCCN1CCN1CCc2cc(C(=O)NC3Cc4ccccc4C3)ccc2C1=O` [Example 148, N-(2,3-dihydro-1H-inden-2-yl)-2-{2-[(2R)-2-methylpyrrolidin-1-yl]ethyl}-1-oxo-1,2,3,4-tetrahydroisoquinoline-6-carboxamide], the Ki is less than 10 nM.

For the compound `C[C@@H]1CCCN1CCN1CCc2cc(C(=O)NC3CCCC3)ccc2C1=O` [Example 149, N-cyclopentyl-2-{2-[(2R)-2-methylpyrrolidin-1-yl]ethyl}-1-oxo-1,2,3,4-tetrahydroisoquinoline-6-carboxamide], the Ki is less than 10 nM.

As to `C[C@@H]1CCCN1CCN1CCc2cc(C(=O)N3CCc4ccccc4C3)ccc2C1=O` [Example 150, 6-(3,4-dihydroisoquinolin-2(1H)-ylcarbonyl)-2-{2-[(2R)-2-methylpyrrolidin-1-yl]ethyl}-3,4-dihydroisoquinolin-1(2H)-one], the Ki was less than 10 nM.

`C[C@@H]1CCCN1CCN1CCc2cc(C(=O)N3CCCC3)ccc2C1=O` [Example 151, 2-{2-[(2R)-2-methylpyrrolidin-1-yl]ethyl}-6-(pyrrolidin-1-ylcarbonyl)-3,4-dihydroisoquinolin-1(2H)-one]: the Ki was less than 10 nM.

`C[C@@H]1CCCN1CCN1CCc2cc(C(=O)N3Cc4ccccc4C3)ccc2C1=O` [Example 152, 6-(1,3-dihydro-2H-isoindol-2-ylcarbonyl)-2-{2-[(2R)-2-methylpyrrolidin-1-yl]ethyl}-3,4-dihydroisoquinolin-1(2H)-one]: the Ki was less than 10 nM.

`C[C@@H]1CCCN1CCN1CCc2cc(C(=O)Nc3ccncc3)ccc2C1=O` [Example 153, 2-{2-[(2R)-2-methylpyrrolidin-1-yl]ethyl}-1-oxo-N-pyridin-4-yl-1,2,3,4-tetrahydroisoquinoline-6-carboxamide]: the Ki is less than 10 nM.

Regarding `C[C@@H]1CCCN1CCN1CCc2cc(-n3cnc4ccccc43)ccc2C1=O` [Example 154, (R)-6-(1H-benzo[d]imidazol-1-yl)-2-(2-(2-methylpyrrolidin-1-yl)ethyl)-3,4-dihydroisoquinolin-1(2H)-one hydrochloride], the Ki was less than 10 nM.

On to `C[C@@H]1CCCN1CCN1CCc2cc(-c3ccc4c(c3)CCNC4=O)ccc2C1=O` [Example 157, (R)-2-(2-(2-methylpyrrolidin-1-yl)ethyl)-3,3′,4,4′-tetrahydro-6,6′-biisoquinoline-1,1′(2H,2′H-dione hydrochloride], for which the Ki was less than 10 nM.
